Entries after “also recorded” stand apart in the source; their conditions may differ.
Key:
T-type Ca^2+ current = experiment: Whole-cell voltage clamp, T-type Ca2+ current in heart cells; format: cell-based
Procedure: Single cells of different types in culture were prepared from biopsies of human, chick and rabbit. Known and accepted methods for the isolation of fast Na^+ current, T, L and R-type Ca^2+ channels as well as delayed outward K^+ current were used (Bkaily 1994, supra).
The compounds to be tested are added to the appropriate extracellular solution after recording a stable ionic current or normal steady-state level of […]. The effect of different concentrations of compounds are tested on the different type of current and [Ca]i of the different cell types. The effect of each concentration of the compounds in function of the time of exposure are then determined. Once the steady-state effect is reached, the second concentration is added, etc.
In another series of experiments (n=7), the effect of different concentrations of MV8608 were tested on the T-type Ca^2+ current (ICa) using the whole-cell voltage clamp technique and classical experimental conditions described elsewhere by the inventors (Bkaily G. et al., 1991, supra; 1992, supra; 1993, supra). […] As it can be seen in that figure, the inset effect of MV8608 in T-type ICa is immediate.

R-type Ca^2+ channel [1] = experiment: Fura-2 total [Ca]i, R-type channel stimulation-induced sustained increase, pooled cell types; format: cell-based, chick, human, rabbit
Source text: (§1) This sustained increase of Ca^2+ induced by depolarization of the cell membrane or hormones such as PAF, ET-1 and bradykinin is due to the increase of Ca^2+ influx through the R-type Ca^2+ channels at the sarcolemmal membrane and/or the nuclear membrane (Bkaily G., 1994, supra; 1996, supra; 1997a–d, supra). Using Ca^2+ fluorescence probes Fura-2 or Fluo-3 and 2 and three-dimension Ca^2+ imaging techniques (Bkaily G., 1994, supra; 1996, supra; 1997a–d, supra), the effect of hormones and drugs could be easily tested. These two methods are used with single cells of different types as described above.
(§2) In another series of experiments we tested the effect of MV8608 (10^−9M) on R-type Ca^2+ channels stimulation-induced sustained increase of total intracellular Ca^2+ by sustained depolarization (FIGS. 15 to 19), by PAF (10^−9M) (FIGS. 16 to 19 and 21 to 22), by ET-1 (10^−9M) (FIGS. 16 and 19) and bradykinin (BK, 10^−6M) (FIGS. 20 and 21), in embryonic chick heart cells (FIGS. 15, 16, 19 and 20), 19-week-old human fetal heart cells (FIGS. 15, 17, 18 and 20), rabbit aortic vascular smooth muscle (VSM) cells (FIGS. 20 and 21), human aortic VSM cell-line (FIG. 23) and freshly isolated (FIG. 22) as well as in freshly isolated aortic endothelial cells (FIG. 22).
Using Fura-2 [Ca]i measurement technique, in one series of experiments we tested the effect of MV8612 (10^−9M) on the stimulation of R-type Ca^2+-induced sustained increase of [Ca]i by sustained depolarization (FIGS. 26 and 27), PAF (10^−9M, FIG. 34) and ET-1 (FIGS. 33 and 34).

R-type Ca^2+ channel [2] = experiment: Fura-2 [Ca]i, human fetal heart cells; format: cell-based; settings: 10^−9M, KCl 30 mM, PAF 10^−9M
Source text: These two methods are used with single cells of different types as described above.
as §2

R-type Ca^2+ channel [3] = experiment: Fura-2 [Ca]i, freshly isolated human aortic endothelial cells; format: cell-based; settings: 10^−9M
Source text: as §1, §2

[4] = tested on: PAF-induced arterial vasodilatation and venconstriction; experiment: Double-perfused mesenteric bed of the rat
Source text: The inhibitory properties of MV8608 are specific for PAF as the response to ACh (arterial) and AngII (venous) are unaffected by the pregnane-containing moiety.

[5] = tested on: vascular permeability in the rat skin; experiment: Bradykinin-induced skin vascular permeability in rats; format: in vivo; settings: for increase of vascular permeability caused by bradykinin: MV 8612 8 and 16, MV 8608 27 and 54, i.p.
Procedure: To assess further the anti-inflammatory action of MV 8612 and MV 8608, their effects against the inflammatory responses caused by several mediators of inflammation in a murine model of pleurisy were tested (Saleh et al., 1996, Br. J. Pharmacol. 118:811–819). In addition, both compounds were tested against the increase of vascular permeability caused by bradykinin in the rat skin (Neves et al., 1993b, Phytotherapy Research. 7:356–362).

[6] = tested on: contraction of rat uterus induced by BK; settings: Calixto et al. 1987; cited from earlier work
anaesthetized guinea pig = experiment: Anaesthetized guinea pig, PAF bronchoconstriction and hypotension; format: in vivo
Source text: (§3) On the other hand, in vivo administered PAF, induced a marked hypotension in the anaesthetized rat and guinea pig.

anaesthetized rat = experiment: Anaesthetized rat, blood pressure and PAF hypotension; format: in vivo; settings: anaesthetized rat
Source text: as §3

tail-flick = experiment: Tail-flick in mice; format: in vivo; settings: i.p.

| SMILES | overall effect on T-type ICa (T-type Ca^2+ current; 10^−9M and 10^−7M, heart cells) | effect on T-type ICa amplitude (T-type Ca^2+ current; 10^−9M to 10^−7M, n=7) | time to complete block of sustained increase of [Ca]i (R-type Ca^2+ channel [1]; 10^−9M) | sustained increase of [Ca]i via activation of R-type Ca2+ channel (R-type Ca^2+ channel [1]; 10^−9M, sustained depolarization, ET-1 10^−9M, PAF 10^−9M, BK 10^−6M) | block of R-type Ca2+ channel across cell types (R-type Ca^2+ channel [1]; incl. MG63, FAOS-2, human VSM, endothelial cells, T-lymphocytes, platelets, AOSMC-9) | sustained increase of [Ca]i (R-type Ca^2+ channel [2]) | basal [Ca]i (R-type Ca^2+ channel [3]) | response to ACh (arterial) and AngII (venous) [4] | PAF-induced responses (arterial vasodilatation, venconstriction) ([4]; 1 μM in FIG. 24) | increase of vascular permeability caused by bradykinin [5] | inhibition of BK-induced contraction of rat uterus [6] | sustained increase of [Ca]i induced by sustained depolarization and hormones (R-type Ca^2+ channel [1]; 10^−9M, PAF 10^−9M, ET-1) | intrinsic hypotensive effect (anaesthetized guinea pig; guinea pig) | bronchoconstrictive responses to PAF (anaesthetized guinea pig; pretreatment) | hypotensive effects of PAF (anaesthetized guinea pig; pretreatment) | hypotensive effect of PAF after withdrawal of treatment (anaesthetized guinea pig; same animal) | hypotensive effect of PAF (anaesthetized rat) | activity against bradykinin vascular permeability, comparison ([5]; MV 8612 versus MV 8608) | ID50 TAIL-FLICK (tail-flick) |
| --- | --- | --- | --- | --- | --- | --- | --- | --- | --- | --- | --- | --- | --- | --- | --- | --- | --- | --- | --- |
| C[C@]12CC[C@H](O)CC1=CC[C@@H]1[C@@H]2CC[C@]2(C)[C@H]3[C@@H]4OC[C@H]3O[C@@H](O)[C@]12O4 [MV8608, (15R, 16R, 20S)-14, 16:15,20:16,21-triepoxi-15,16-seco 14β, 17α-pregn-5-ene-3β, 15-diol] | very weak depressor; also recorded: relative weak depressing effect | had no effect | 4 to 5 min | completely blocked; also recorded: blockade | blocked the R-type Ca^2+ channel in all cell types used | blockade | decrease of basal sustained increase of [Ca]i | unaffected | concentration-dependent inhibition; also recorded: blocked PAF | antagonised in a dose-related manner | selective in its ability to inhibit the contraction of rat uterus induced by BK | – | – | – | – | – | – | – | – |
| COC1CC(OC2C(C)OC(O[C@H]3CC[C@@]4(C)C(=CC[C@@H]5[C@@H]4CC[C@]4(C)[C@H]6[C@@H]7OC[C@H]6O[C@@H](O)[C@]54O7)C3)CC2OC)OC(C)C1OC1CC(OC)C(OC2CC(OC)C(OC3OC(C)C(OC(C)=O)C(OC)C3OC(C)=O)C(C)O2)C(C)O1 (some centres unmarked) [MV8612] | – | – | – | – | – | – | – | – | – | antagonised in a dose-related manner | – | significantly decreased | devoid of marked intrinsic effect | abolishes | very significantly reduced; also recorded: abolishes | fully restored | Identical inhibition | more active than MV 8608 | no effect |
